Key:
[1] = test system: B16F10 melanoma cells; test: WST-1 proliferation assay, B16F10 melanoma cells; format: cell-based; conditions: WST-1, 48 hours
Experimental: The cytotoxicity of inhibitors was tested by using LDH Cytotoxicity Detection Kit (TaKaRa) according to the manufacturer's instructions. Briefly, tumor cells were cultured in the presence or absence of an agent (disulfiram or 5FU) for 72 hours, and the culture supernatant was then collected and tested for the concentration of lactate dehydrogenase released from damaged cells. For measurement of cell proliferation, cells were incubated in a plate well together with an inhibitor for 48 hours. During the last 30 minutes, WST-1 (Dojindo Laboratories) was added to the culture liquid, and the absorbance of each well was measured at 450 nm versus 650 nm reference using EnVision (PerkinElmer) to detect the formazan level.

[2] = target: T1, FROUNT-CCR5 interaction (Homo sapiens, UniProt Q9BW27); test: HTRF binding inhibition assay, FROUNT-CCR5 interaction; conditions: result in words
T1 construct: made in house
T1 sequence (Q9BW27 500-656): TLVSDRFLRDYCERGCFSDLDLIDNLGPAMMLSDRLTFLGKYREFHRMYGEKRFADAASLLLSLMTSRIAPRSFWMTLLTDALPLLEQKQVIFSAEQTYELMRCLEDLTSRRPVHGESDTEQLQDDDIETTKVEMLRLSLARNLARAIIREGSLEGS
Experimental: For the screening, a compound library containing 131,200 kinds of compounds dissolved in DMSO at a concentration of 10 mM or 2 mM (obtained from Open Innovation Center for Drug Discovery, the University of Tokyo) was used. The HTRF assay was carried out using a 384-well low-dose white microplate (Corning Coaster; catalog number 3676). In each well, 4 μL of a solution of 20 nM GST fusion FROUNT protein (a recombinant polypeptide prepared by fusing GST to aa 500-656 of SEQ ID NO:2), and DMSO or test compounds were mixed with a binding buffer (10 mM HEPES [pH 7.4], 0.2 M potassium fluoride, 10 mM NaCl, 0.1% Tween 20, and 0.5% bovine serum albumin [BSA]), and the plate was incubated at room temperature for 30 minutes. […]. After incubation at room temperature for 20 hours, the HTRF signal was measured at emission wavelengths of 620 nm and 665 nm using a multilabel counter EnVision (PerkinElmer).
By the same HTRF assay as described above, the abilities of disulfiram to inhibit the FROUNT-CCR2 interaction or the FROUNT-CCR5 interaction were investigated. As the CCR5 pro-C peptide, the 16 residues […] (SEQ ID NO:4) in the C-terminal region of CCR5 was used. As a control, the p53-MDM2 interaction (which is inhibited by an MDM-2-specific inhibitor Nutlin), which is also a helix peptide-protein interaction like the interaction between FROUNT and CCR2 or CCR5 but is not related thereto, was used.

[3] = test system: B16 melanoma cells; test: Combined use with anti-PD-1 antibody, B16 tumor-bearing model; format: in vivo, mouse; conditions: DSF in feed from Day 4, anti-PD-1 antibody 0.2 mg i.p. x4
Experimental: To provide an example of combined use of an anticancer drug and disulfiram (DSF), the effect of combined use of an anti-PD-1 antibody, which is an anticancer drug targeting an immune checkpoint molecule, and DSF was studied using an LLC tumor-bearing model and a B16 tumor-bearing model. The B16 tumor-bearing model was prepared by transplanting 5×10^5 B16 melanoma cells to the right abdomen of each of wild-type C57BL/6 mice. Preparation of the LLC tumor-bearing model was carried out in the same manner as in the above-described section 3. A feed supplemented with DSF was provided in the same manner as in the above-described section 3.
The day of the transplantation of the tumor cells to the mice was defined as Day 0. From Day 4, the mice were fed with the feed supplemented with DSF or a control feed every day during the experimental period. An anti-PD-1 antibody (J43, manufactured by BioXcell) was intraperitoneally administered once at a dose of 0.2 mg on each of Day 5, Day 8, Day 14, and Day 18 (four times in total). To provide a control for the antibody administration, PBS was intraperitoneally administered. The tumor size was measured using a caliper twice a week, and the tumor volume was calculated.

[4] = test system: B16F10 melanoma cells; test: Lung metastasis model (B16F10); format: in vivo, mouse; conditions: B16F10 via tail vein, Day 9 post tumor administration
Experimental: To provide a lung metastasis model, 1×10^6 B16F10 melanoma cells were suspended in 200 μL of PBS, and administered from the tail vein of each of wild-type C57BL/6 mice. Administration of the inhibitor was carried out one day before, 30 minutes before, and one day after the tumor administration. To provide a control, DMSO and a pyrimidine fluoride anticancer drug 5-FU were administered. The mice were euthanized on Day 9 post tumor administration, and PBS was perfused from the left ventricle, followed by isolation of lungs. Visible lung metastatic lesions in the left lobe were counted.

[5] = target: T2, aldehyde dehydrogenase (ALDH) (Rattus norvegicus, UniProt P11884); conditions: Excerpt from Alcohol Clin Exp Res 1996.20.595-; read-out: ALDH inhibition; cited from earlier work
T2 sequence (P11884 20-519): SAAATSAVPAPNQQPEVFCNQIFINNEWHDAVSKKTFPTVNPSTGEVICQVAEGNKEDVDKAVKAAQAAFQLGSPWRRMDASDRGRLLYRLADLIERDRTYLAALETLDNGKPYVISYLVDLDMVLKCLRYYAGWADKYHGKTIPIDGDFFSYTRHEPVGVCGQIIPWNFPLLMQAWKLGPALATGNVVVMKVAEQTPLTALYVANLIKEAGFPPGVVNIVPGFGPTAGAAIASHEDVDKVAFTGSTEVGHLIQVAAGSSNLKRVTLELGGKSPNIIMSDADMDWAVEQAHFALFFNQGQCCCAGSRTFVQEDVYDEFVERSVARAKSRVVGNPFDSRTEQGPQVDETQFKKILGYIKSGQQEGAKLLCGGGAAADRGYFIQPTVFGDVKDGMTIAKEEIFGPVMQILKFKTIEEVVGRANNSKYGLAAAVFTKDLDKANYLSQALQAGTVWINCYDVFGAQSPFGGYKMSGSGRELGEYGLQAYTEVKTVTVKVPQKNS

[6] = test system: human leukocyte cell line THP-1; test: In vitro chemotaxis assay, THP-1; format: cell-based; conditions: THP-1, concentration without cytotoxicity
Experimental: A human leukocyte cell line THP-1 was counted and resuspended in Boyden buffer (RPMI medium supplemented with 0.1% BSA), and the cells were preincubated with disulfiram before the chemotaxis assay. The cell migration activity was measured using a 96-well ChemoTX Chemotaxis Chamber (Neuro probe) with a polycarbonate filter with a pore size of […] Chemokine was applied to the lower chamber of the plate, and the cells were applied to the upper chamber. After incubation at 37° C. in 5% CO2 for 90 minutes, the filter was removed, and the number of migrated cells in the lower chamber was counted using Cell Counting Kit F (Dojindo Laboratories).

CCN(CC)C(=S)SSC(=S)N(CC)CC [DSF, disulfiram]
growth-inhibiting action on B16F10 melanoma cells [1]: did not show any action | inhibition of FROUNT-CCR5 interaction [2]: selectively inhibited | inhibitory effect on cancer hyperplasia (tumor volume) [3]: not observed at a significant level | formation of lung metastatic lesions ([4]; listed as Disulfiram): significantly reduced | formation of lung metastatic lesions ([4]; listed as disulfiram): effectively reduced | IC50 [5]: 7.4 µM | cell migration mediated by CCL2 [6]: inhibited
